pIC50: −log10 of the molar value. Counter-ions that a name gives are not always drawn.
Experiments:
[1] = system: JAK; conditions: cell-based assay, WO 2010/085684 page 314; cited from earlier work
[2] = Dissolution measurements, μ-DISS Profiler, micronized material; format: physicochemical
Protocol: In general, 0.5 mg of the micronized material was added to the stirred dissolution media (20 mL 0.1 M acetate buffer, pH 4.5, 200 rpm, at 37° C.). The dissolution profiles were generated by measuring the UV absorbance at 280 nm wavelength. The material of interest was evaluated in triplicate.
The particle size of the materials was reduced by micronisation, as follows, using a 2″ Spiral Jet Mill or a 1″ MCOne fluid Jet Mill followed by subsequent particle size distribution (PSD) measurements.
Test substance was fed into the jet mill chamber, via a venturi feed system, by a vibratory feeder. Micronisation was achieved by particle collisions brought about by compressed gas (nitrogen) forced through angled nozzles in the jet mill chamber. Particles of different sizes develop different speeds and momentum and as the particle size is reduced the particles spiral towards the centre of the jet mill and exit via an exhaust into a collection bin. The process parameters that control the particle size, in addition to the inherent properties of the compound to be micronised, are the feed rate, grinding pressure and venturi pressure and these are summarised in Table 2 below.

increase in solubility compared to free base ([2]; at 50 minutes, 0.1 M acetate buffer pH 4.5, 37° C., micronized material) | aqueous solubility ([2]; general statement, compared to Compound (I) free base) | Structure (SMILES) | pIC50 [1]
– | – | Cc1cnc(Nc2cc(C)c(C)c(C)c2)nc1Nc1ccc2oc(=O)[nH]c2c1 [Compound (I), 5-((5-methyl-2-((3,4,5-trimethylphenyl)-amino)pyrimidin-4-yl)amino)benzo[d]oxazol-2(3H)-one] | > 6.30
~6 fold | high aqueous solubility | Cc1cnc(Nc2cc(C)c(C)c(C)c2)nc1Nc1ccc2oc(=O)[nH]c2c1 [hemi-fumarate salt, 5-((5-methyl-2-((3,4,5-trimethylphenyl)-amino)pyrimidin-4-yl)amino)benzo[d]oxazol-2(3H)-one hemi-fumarate Salt] | –

Reference: patent US20210198248A1, “FUMARATE SALT OF 5-((5-METHYL-2-((3,4,5-[…])AMINO)PYRIMIDIN-4-YL)AMINO)-BENZO[D]OXAZOL-2(3H)-ONE” (ASTRAZENECA AB, priority 2018, published 2021)
